From ChEMBL document CHEMBL3779870, “Differential metabolism of 3FDT and docetaxel in RLMs, rats, and HLMs” (Eur J Med Chem, 2016)

Experiments:
Format in all cases: ADME, organism-based
Conditions in all cases: in vivo
[1] = Drug level in Sprague-Dawley rat urine treated with 3FDT at 40 mg/kg, iv administered as single dose after 24 hrs by HPLC-TIC chromatography
Plasma = experiment: Drug level in Sprague-Dawley rat plasma treated with 3FDT at 40 mg/kg, iv administered as single dose after 4 to 24 hrs by HPLC-TIC chromatography
[2] = Drug level in Sprague-Dawley rat feces treated with 3FDT at 40 mg/kg, iv administered as single dose after 24 hrs by HPLC-TIC chromatography

Measured: Drug metabolism

CC(=O)O[C@@]12CO[C@@H]1C[C@@H](O)[C@@]1(C)C(=O)[C@H](O)C3=C(C)[C@@H](OC(=O)[C@H](O)[C@@H](NC(=O)OC(C)(C)C(F)(F)F)c4ccccc4)C[C@@](O)([C@@H](OC(=O)c4ccccc4)C12)C3(C)C (stereo partly drawn)
metabolite_detected: all assays above
